Assay [1] concerns the target T1, human V2 receptor (Homo sapiens, UniProt P30518).
T1 construct: expressed in transfected cells; host or cells: CHO K1 (ATCC) expressing firefly luciferase under a CRE-responsive promoter
In words: Cellular in vitro assay for determining vasopressin receptor activity, V2 receptor cell line (CHO, CRE-luciferase). Type of assay: cell-based. The note with it: CHO cell line transfected with human V2 receptor; [Arg8]-vasopressin at EC50 concentration, 3 hours; read-out: IC50 hV2. The procedure: (§1) B-1. Cellular In Vitro Assay for Determining Vasopressin Receptor Activity
(§2) The identification of agonists and antagonists of the V1a and V2 vasopressin receptors from humans, rats and dogs as well as the quantification of the activity of the compounds of the invention is carried out using recombinant cell lines. These cell lines originally derive from a hamster's ovary epithelial cell (Chinese Hamster Ovary, CHO K1, ATCC: American Type Culture Collection, Manassas, Va. 20108, USA). The test cell lines constitutively express the human, rat or dog V1a or V2 receptors. In case of the Gαq-coupled V1a receptors, cells are also stably transfected with a modified form of the calcium-sensitive photoproteins aequorin (human and rat V1a) or obelin (dog V1a), which, after reconstitution with the cofactor coelenterazine, emit light when there are increases in free calcium concentrations [Rizzuto R, Simpson A W, Brini M, Pozzan T, Nature 358, 325-327 (1992); Illarionov B A, Bondar V S, Illarionova V A, Vysotski E S, Gene 153 (2), 273-274 (1995)]. The resulting vasopressin receptor cells react to stimulation of the recombinantly expressed V1a receptors by intracellular release of calcium ions, which can be quantified by the resulting photoprotein luminescence. The Gs-coupled V2 receptors are stably transfected into cell lines expressing the gene for firefly luciferase under control of a CRE-responsible promoter. Activation of V2 receptors induces the activation of the CRE-responsive promoter via cAMP increase, thereby inducing the expression of firefly luciferase. The light emitted by photoproteins of V1a cell lines as well as the light emitted by firefly luciferase of V2 cell lines corresponds to the activation or inhibition of the respective vasopressin receptor. The bioluminescence of the cell lines is detected using a suitable luminometer [Milligan G, Marshall F, Rees S, Trends in Pharmacological Sciences 17, 235-237 (1996)].
Vasopressin V2 Receptor Cell Lines:
On the day before the assay, the cells are plated out in culture medium (DMEM/F12, 2% FCS, 2 mM glutamine, 10 mM HEPES) in 384-well microtiter plates and kept in a cell incubator (96% humidity, 5% v/v CO2, 37° C.). On the day of the assay, test compounds in various concentrations and the agonist [Arg^8]-vasopressin at EC50 concentration are added together to the wells, and plates are incubated for 3 hours in a cell incubator. Upon addition of the cell lysis reagent Triton™ and the substrate luciferin, luminescence of firefly luciferase is measured in a luminometer.
(§3) Table 1A below lists individual IC50 values for the compounds of the invention (including racemic mixtures as well as separated enantiomers) that were obtained from cell lines transfected with the human V1a or V2 receptor: […]

Assay [2] has as its target T2, human V1a receptor (Homo sapiens, UniProt P37288).
T2 construct: expressed in transfected cells; host or cells: CHO K1 (ATCC), also stably transfected with a modified aequorin
In words: Cellular in vitro assay for determining vasopressin receptor activity, V1a receptor cell line (CHO, aequorin luminescence). In kind it is cell-based. As to conditions: for pIC50: CHO cell line transfected with human V1a receptor, [Arg]-vasopressin at EC50 concentration, read-out: IC50 hV1a; for ratio IC50 hV2/hV1a: selectivity ratio IC50 hV2 / IC50 hV1a. As for the experimental part: as §1, §2
Vasopressin V1a Receptor Cell Lines:
On the day before the assay, the cells are plated out in culture medium (DMEM/F12, 2% FCS, 2 mM glutamine, 10 mM HEPES, 5 μg/ml coelenterazine) in 384-well microtiter plates and kept in a cell incubator (96% humidity, 5% v/v CO2, 37° C.). On the day of the assay, test compounds in various concentrations are placed for 10 minutes in the wells of the microtiter plate before the agonist [Arg]-vasopressin at EC50 concentration is added. The resulting light signal is measured immediately in a luminometer.
as §3

pIC50: −log10 of the molar value.

T1 sequence (P30518 whole entry): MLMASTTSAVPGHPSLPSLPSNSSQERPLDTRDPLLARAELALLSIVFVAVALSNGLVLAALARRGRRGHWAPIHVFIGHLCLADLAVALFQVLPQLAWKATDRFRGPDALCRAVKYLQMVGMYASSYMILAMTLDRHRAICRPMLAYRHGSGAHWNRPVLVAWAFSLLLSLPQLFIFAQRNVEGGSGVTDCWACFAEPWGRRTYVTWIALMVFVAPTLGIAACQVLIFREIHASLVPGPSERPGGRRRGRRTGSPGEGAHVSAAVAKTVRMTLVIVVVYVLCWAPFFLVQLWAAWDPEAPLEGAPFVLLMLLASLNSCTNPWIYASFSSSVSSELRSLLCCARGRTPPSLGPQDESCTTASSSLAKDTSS
T2 sequence (P37288 whole entry): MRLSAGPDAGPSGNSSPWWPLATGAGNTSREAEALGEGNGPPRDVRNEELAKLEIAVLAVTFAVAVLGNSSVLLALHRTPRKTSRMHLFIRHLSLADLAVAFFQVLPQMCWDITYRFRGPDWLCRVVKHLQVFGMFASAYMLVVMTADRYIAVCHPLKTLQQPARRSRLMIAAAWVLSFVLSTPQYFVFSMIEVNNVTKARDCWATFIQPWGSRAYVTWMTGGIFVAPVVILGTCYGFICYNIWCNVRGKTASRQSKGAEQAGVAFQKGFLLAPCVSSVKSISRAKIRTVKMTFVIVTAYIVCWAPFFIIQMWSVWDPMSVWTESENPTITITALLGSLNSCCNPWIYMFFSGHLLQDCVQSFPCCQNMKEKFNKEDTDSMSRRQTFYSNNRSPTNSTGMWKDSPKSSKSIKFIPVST

One may read the pIC50 as the negative decadic logarithm of the IC50, by convention in mol/L. Take `O=C1CCC(CNc2ccncc2-n2cnc(Cn3nc(-c4ccc(Cl)cc4)n(C[C@H](O)C(F)(F)F)c3=O)n2)N1` (mixture of isomers) [Example 7, 5-(4-Chlorophenyl)-2-({1-[4-({[5-oxopyrrolidin-2-yl]methyl}amino)pyridin-3-yl]-1H-1,2,4-triazol-3-yl}methyl)-4-[(2S)-3,3,3-trifluoro-2-hydroxypropyl]-2,4-dihydro-3H-1,2,4-triazol-3-one]: the pIC50 in assay [1] was 5.41. Further, in assay [2], the pIC50 was 5.76 and the “ratio IC50 hV2/hV1a” value is listed as 2.2.
The matching figures for `CC1(O)CCN(c2ccncc2-n2cnc(Cn3nc(-c4ccc(Cl)cc4)n(C[C@H](O)C(F)(F)F)c3=O)n2)C1` (mixture of isomers) [Example 13, 5-(4-Chlorophenyl)-2-[(1-{4-[3-hydroxy-3-methylpyrrolidin-1-yl]pyridin-3-yl}-1H-1,2,4-triazol-3-yl)methyl]-4-[(2S)-3,3,3-trifluoro-2-hydroxypropyl]-2,4-dihydro-3H-1,2,4-triazol-3-one]: 7.04, 6.24 and 0.2.
Take `O=C(Nc1ccncc1-n1cnc(Cn2nc(-c3ccc(Cl)cc3)n(C[C@H](O)C(F)(F)F)c2=O)n1)C1CC1(F)F` (mixture of isomers) [Example 29, N-{3-[3-({3-(4-Chlorophenyl)-5-oxo-4-[(2S)-3,3,3-trifluoro-2-hydroxypropyl]-4,5-dihydro-1H-1,2,4-triazol-1-yl}methyl)-1H-1,2,4-triazol-1-yl]pyridin-4-yl}-2,2-difluorocyclopropanecarboxamide]: the pIC50 in assay [1] is 6.44. Moreover, in assay [2], the pIC50 is 7.78 and the “ratio IC50 hV2/hV1a” value is on record as 22.1.
Take `O=C(Nc1cccnc1-n1cnc(Cn2nc(-c3ccc(Cl)cc3)n(C[C@H](O)C(F)(F)F)c2=O)n1)C1CC1(F)F` (mixture of isomers) [Example 41, N-{2-[3-({3-(4-Chlorophenyl)-5-oxo-4-[(2S)-3,3,3-trifluoro-2-hydroxypropyl]-4,5-dihydro-1H-1,2,4-triazol-1-yl}methyl)-1H-1,2,4-triazol-1-yl]pyridin-3-yl}-2,2-difluorocyclopropanecarboxamide]: the negative-log IC50 (pIC50) in assay [1] was 6.65. Further, in assay [2], the pIC50 is 8.46 and the “ratio IC50 hV2/hV1a” value was 64.4.
On the same counts, the results for `O=C(Nc1cccnc1-n1cnc(Cn2nc(-c3ccc(Cl)cc3)n(C[C@H](O)C(F)(F)F)c2=O)n1)C1CCS(=O)(=O)C1` (mixture of isomers) [Example 50, N-{2-[3-({3-(4-Chlorophenyl)-5-oxo-4-[(2S)-3,3,3-trifluoro-2-hydroxypropyl]-4,5-dihydro-1H-1,2,4-triazol-1-yl}methyl)-1H-1,2,4-triazol-1-yl]pyridin-3-yl}tetrahydrothiophene-3-carboxamide 1,1-dioxide] are 5.36, 7.69 and 213.0.
In the case of `O=C(Nc1cccnc1-n1cnc(Cn2nc(-c3ccc(Cl)cc3)n(CC(O)C(F)(F)F)c2=O)n1)C1CC1F` (mixture of isomers) [Example 59, N-{2-[3-({3-(4-Chlorophenyl)-5-oxo-4-[(2S)-3,3,3-trifluoro-2-hydroxypropyl]-4,5-dihydro-1H-1,2,4-triazol-1-yl}methyl)-1H-1,2,4-triazol-1-yl]pyridin-3-yl}-2-fluorocyclopropanecarboxamide], the pIC50 in assay [1] is 6.02. Also, in assay [2], the pIC50 is 8.29 and the “ratio IC50 hV2/hV1a” value is reported as 185.4.
The matching figures for `O=C(Nc1ncccc1-n1cnc(Cn2nc(-c3ccc(Cl)cc3)n(C[C@H](O)C(F)(F)F)c2=O)n1)C1CC1(F)F` (mixture of isomers) [Example 75, N-{3-[3-({3-(4-Chlorophenyl)-5-oxo-4-[(2S)-3,3,3-trifluoro-2-hydroxypropyl]-4,5-dihydro-1H-1,2,4-triazol-1-yl}methyl)-1H-1,2,4-triazol-1-yl]pyridin-2-yl}-2,2-difluorocyclopropanecarboxamide]: 5.89, 8.18 and 197.0.
The matching figures for `O=C(Nc1ncccc1-n1cnc(Cn2nc(-c3ccc(Cl)cc3)n(C[C@H](O)C(F)(F)F)c2=O)n1)C1CCS(=O)(=O)C1` (mixture of isomers) [Example 82, N-{3-[3-({3-(4-Chlorophenyl)-5-oxo-4-[(2S)-3,3,3-trifluoro-2-hydroxypropyl]-4,5-dihydro-1H-1,2,4-triazol-1-yl}methyl)-1H-1,2,4-triazol-1-yl]pyridin-2-yl}tetrahydrothiophene-3-carboxamide 1,1-dioxide]: 6.47, 7.48 and 10.2.
The matching figures for `CC1(O)CCN(C(=O)c2ccccc2-n2cnc(Cn3nc(-c4ccc(Cl)cc4)n(C[C@H](O)C(F)(F)F)c3=O)n2)C1` (mixture of isomers) [Example 183, 5-(4-Chlorophenyl)-2-{[1-(2-{[3-hydroxy-3-methylpyrrolidin-1-yl]carbonyl}phenyl)-1H-1,2,4-triazol-3-yl]methyl}-4-[(2S)-3,3,3-trifluoro-2-hydroxypropyl]-2,4-dihydro-3H-1,2,4-triazol-3-one]: 5.46, 7.06 and 39.8.
With `O=C1CCC(NC(=O)c2ccccc2-n2cnc(Cn3nc(-c4ccc(Cl)cc4)n(C[C@H](O)C(F)(F)F)c3=O)n2)CN1` (mixture of isomers) [Example 191], the pIC50 in assay [1] is 5.43. In assay [2], the pIC50 is 7.71 and the “ratio IC50 hV2/hV1a” value amounted to 192.3.
On the same counts, the results for `NC(CNC(=O)c1ccccc1-n1cnc(Cn2nc(-c3ccc(Cl)cc3)n(C[C@H](O)C(F)(F)F)c2=O)n1)C(F)(F)C(F)F` (mixture of isomers) [Example 196, N-[2-Amino-3,3,4,4-tetrafluorobutyl]-2-[3-({3-(4-chlorophenyl)-5-oxo-4-[(2S)-3,3,3-trifluoro-2-hydroxypropyl]-4,5-dihydro-1H-1,2,4-triazol-1-yl}methyl)-1H-1,2,4-triazol-1-yl]benzamide] are 6.07, 7.66 and 38.9.
With `O=C(c1ncccc1-n1cnc(Cn2nc(-c3ccc(Cl)cc3)n(C[C@@H](O)C(F)(F)F)c2=O)n1)N1CCNC(C(F)(F)F)C1` (mixture of isomers) [Example 476, 5-(4-Chlorophenyl)-4-[(2R)-3,3,3-trifluoro-2-hydroxypropyl]-2-{[1-(2-{[3-(trifluoromethyl)piperazin-1-yl]carbonyl}pyridin-3-yl)-1H-1,2,4-triazol-3-yl]methyl}-2,4-dihydro-3H-1,2,4-triazol-3-one], in assay [2], the pIC50 is 6.12 and the “ratio IC50 hV2/hV1a” value is given as 133.3.
With `O=C(N[C@H]1C[C@@H]1F)c1ncccc1-n1nc(Cn2nc(-c3ccc(Cl)cc3)n(C[C@@H](O)C(F)(F)F)c2=O)nc1N1CCS(=O)(=O)CC1` (racemic) [Example 487, 3-[3-({3-(4-Chlorophenyl)-5-oxo-4-[(2R)-3,3,3-trifluoro-2-hydroxypropyl]-4,5-dihydro-1H-1,2,4-triazol-1-yl}methyl)-5-(1,1-dioxidothiomorpholin-4-yl)-1H-1,2,4-triazol-1-yl]-N-[2-fluorocyclopropyl]pyridine-2-carboxamide], in assay [2], the pIC50 was 5.28 and the “ratio IC50 hV2/hV1a” value is recorded as 18.9.
As for `O=C1CN(C(=O)c2ncccc2-n2cnc(Cn3nc(-c4ccc(Cl)cc4)n(C[C@@H](O)C(F)(F)F)c3=O)n2)CCN1` [Example 469, 4-({3-[3-({3-(4-Chlorophenyl)-5-oxo-4-[(2R)-3,3,3-trifluoro-2-hydroxypropyl]-4,5-dihydro-1H-1,2,4-triazol-1-yl}methyl)-1H-1,2,4-triazol-1-yl]pyridin-2-yl}carbonyl)piperazin-2-one], in assay [2], the pIC50 was 6.25 and the “ratio IC50 hV2/hV1a” value is 178.6.

The record behind these values is patent US11173151B2, “Substituted triazole derivatives and uses thereof” (BAYER AKTIENGESELLSCHAFT, priority 2017, dated 2021).
